Reference: patent US5053398A, “Sulfated homopolysaccharides as anti-AIDS virus agents” (Taito Co., Ltd., priority 1988, dated 1991)
“Also recorded” adds a separate entry of the source. Read-outs that look alike come from different tables or passages of the source.

Legend:
[1] = system: AIDS virus; details: background; cited from earlier work
[2] = system: reverse transcriptase of AIDS virus; details: background; cited from earlier work
[3] = system: AIDS virus (virus derived from Tall-1/HTLV-III) in Molt-4/cl. No. 8 cells; experiment: Anti-AIDS virus activities, reverse transcriptase activities (Molt-4/cl. No. 8 cells); type: cell-based, HIV (human immunodeficiency virus)
Protocol: Virus derived from Tall-1/HTLV-III were adsorbed on Molt-4/cl. No. 8 cells. Then, the cells were washed with a culture medium to remove virus not adsorbed on the cells. The cells thus obtained were subjected to the following test.
[…] Culturing was conducted for 8 days, and cytopathic effects (CPE) by virus were observed. Further, on the 8th day, the supernatant of the culture medium was sampled and subjected to the measurement of reverse transcriptase activities. The cells were subjected to an indirect immunofluorescence assay to detect the virus antigen.
The anti-AIDS virus activities were studied with respect to the sulfates of scleroglucan and pendulan thus obtained, in accordance with the method as used in Example 1(3).
Schizophyllans having different molecular weights were sulfated in accordance with method A in Example 1 (polysaccharide: 0.5 g; pyridine/sulfuric anhydride complex: 5 g; reaction time: 5 hours). The anti-AIDS virus activities were studied with respect to the polysaccharide sulfates thus obtained, in accordance with the method as described in Example 1(3). As the control, dextran sulfate was used.

[4] = system: AIDS virus in MT-4 cells; experiment: Anti-AIDS virus activities, reverse transcriptase activities (MT-4 cells); type: cell-based, HIV (human immunodeficiency virus); details: 10 days, virus (-) 2481, virus (+) 348764
Protocol: Further, anti-AIDS virus activities of schizophyllan sulfates were studied by using MT-4 cells. Cells were prepared in the same manner as in Example 1(3), and into each well, 1 ml of a cell suspension containing 14×10^4 cells/ml, 1 ml of a culture medium and a sample solution were added, followed by culturing for 10 days. The anti-AIDS virus activities of schizophyllan sulfates were studied by the observation of the cytopathic effects, by the measurement of reverse transcriptase activities and by the indirect immunofluorescence assay.

[5] = system: AIDS virus in human peripheral lymphocytes; experiment: Anti-AIDS virus activities in a human peripheral blood lymphocytes system, reverse transcriptase activities; type: cell-based, HIV (human immunodeficiency virus); details: Case 2, 100 μg/ml
Protocol: In the foregoing Examples, the anti-AIDS virus activities of schizophyllan sulfates were studied in a subcultured cell line. In this Example, a test was conducted for the effects of schizophyllan sulfates for suppressing proliferation of AIDS virus in a human peripheral lymphocytes system. Lymphocytes were separated from peripheral blood of an AIDS patient by Ficoll-Paque Separation, washed three times with a serum-free culture medium and suspended in a culture medium containing 10% of FCS. Adsorbable cells were removed, and suspended cells were collected and suspended in a culture medium. Then, PHA and IL-2 were added thereto. Healthy human lymphocytes were prepared 3 days ahead by the above-mentioned method. Into each well of a microplate having 24 wells, 10^6 /1 ml of patient's lymphocytes, a culture medium, 10^6 /1 ml of healthy human lymphocytes and a schizophyllan sulfate solution were introduced, mixed and cultured. On the seventh day and eleventh day after initiation of the culturing, the supernatant was sampled and subjected to the measurement of reverse transcriptase activities. Into each well, a sampled supernatant and the same amount of a culture medium were introduced and culturing was continued.

[6] = system: AIDS virus; experiment: Anti-AIDS virus activities (general statements, test not specified); design: species or system HIV (human immunodeficiency virus); details: general findings of the inventors
[7] = system: spleen of a mouse (spleen cells); experiment: Mitogenic activities (3H-thymidine uptake, mouse spleen cells); type: cell-based
Protocol: A spleen of a mouse was aseptically taken out and dispersed in a culture medium to obtain a cell suspension containing 3×10^6 cells/ml. The cells were subdivided into wells of a 96 well-microplate so as to adjust the cell number in each well to 3×10^5. A culture medium and a sample were added to each well, followed by culturing for 3 days. On the third day, 0.5 μCi of ^3 H-thymidine was added to each well, and culturing was conducted for further 7 hours. Then, the cells were harvested and thoroughly washed, and the amount of ^3 H-thymidine taken into the cells was measured by a liquid scintillation counter.

[8] = system: Sarcoma 180 cells; experiment: Anti-tumor activities, Sarcoma 180 in mice; type: in vivo
Protocol: 2×10^6 Sarcoma 180 cells were transplanted subcutaneously into the groins of mice. Twenty four hours later, 0.05 ml of a 0.5% PBS solution of schizophyllan sulfate was administered to a rear femoral muscle. Thirty days later, the mice were killed and dissected, and tumors were taken out and weighed. The tumor inhibition rates were culculated by the following equation. [formula] where A and B denote the average tumor weights (g) of the control group and the treated group.
Each group consisted of 6 mice. To the control group, PBS was administered in the same amount as in the tested group.

In the case of NC(=O)c1ncn([C@@H]2O[C@H](CO)[C@@H](O)[C@H]2O)n1 [ribavirin], the “anti-AIDS virus activities” value [1] is given as “known to exibit anti-AIDS effects”.

For Cc1ccc(C(=O)Nc2ccc(S(=O)(=O)O)c3cc(S(=O)(=O)O)cc(S(=O)(=O)O)c23)cc1NC(=O)c1cccc(NC(=O)Nc2cccc(C(=O)Nc3cc(C(=O)Nc4ccc(S(=O)(=O)O)c5cc(S(=O)(=O)O)cc(S(=O)(=O)O)c45)ccc3C)c2)c1 [suramin], the “anti-AIDS virus activities” value [1] is given as “known to exibit anti-AIDS effects”.

In the case of .iota.-carrageenan, the “inhibition of the reverse transcriptase of AIDS virus” value (shortened to “inhibition … of AIDS virus”) [2] is given as “have similar physiological activities”.

In the case of Dextran sulfate, the “Reverse transcriptase activities (CPM)” value ([3]; 100 μg/ml, Molt-4/cl. No. 8 cells, 8 days, Table 3, virus (-) 199, virus (+) 27557) is reported as 1947 ± 64 CPM, the “Reverse transcriptase activities (CPM)” value ([3]; 100 μg/ml, Table 8, virus (-) 621, virus (+) 51344) is reported as 1781 ± 169 CPM and the “Reverse transcriptase activities (CPM)” value ([3]; 100 μg/ml, Table 9, virus (-) 854, virus (+) 49291) is reported as 1738 ± 251 CPM. For the same molecule, the “Reverse transcriptase activities (CPM)” value ([3]; 500 μg/ml, Molt-4/cl. No. 8 cells, 8 days, Table 3, virus (-) 199, virus (+) 27557) was 703 ± 56 CPM, the “Reverse transcriptase activities (CPM)” value ([3]; 500 μg/ml, Table 8, virus (-) 621, virus (+) 51344) was 923 ± 32 CPM and the “Reverse transcriptase activities (CPM)” value ([3]; 500 μg/ml, Table 9, virus (-) 854, virus (+) 49291) was 923 ± 87 CPM. For the same molecule, the “Reverse transcriptase activities (CPM)” value ([4]; 100 μg/ml) was 22317 ± 4502 CPM, the “Reverse transcriptase activities (CPM)” value ([4]; 500 μg/ml) was 18501 ± 2249 CPM and the “Reverse transcriptase activities (CPM)” value ([5]; 7th day, no addition 2872) was 1789 ± 53 CPM. The “Reverse transcriptase activities (CPM)” value ([5]; 11th day, no addition 80436) was 42792 ± 14582 CPM, the “Reverse transcriptase activities (CPM)” value ([5]; 18th day, no addition 67665) was 280741 ± 31039 CPM and the “anti-AIDS virus activities” value [6] was “stronger activities than the sulfates of e.g. mannan, pullulan and alginic acid; also recorded: have anti-AIDS virus activities”. For the same molecule, the “anti-AIDS virus activities” value [1] was “have anti-AIDS virus activities”.

With Schizophyllan the “mitogenic activities” value [7] was “not observed”, the “Mitogenic activities, Count (CPM), control” value ([7]; control substances, concentration not stated (printed under the 100 μg/ml column), Table 2) was 1981 ± 184 CPM and the “Control rate (%) (tumor inhibition rate)” value ([8]; 0.05 ml of 0.5% PBS solution, rear femoral muscle, 30 days) was 99.0%. The “Average weight (g) of tumor (wt ± S.E.)” value ([8]; 0.05 ml of 0.5% PBS solution, rear femoral muscle, 30 days, PBS control 4.07) was 0.04 ± 0.016 g and the “anti-tumor activities” value ([8]; mouse, in vivo) was “having anti-tumor activities”.

In the case of chondroitin sulfate, the “inhibition … of AIDS virus” value [2] is given as “have similar physiological activities”.

For dextran, the “anti-AIDS virus activities” value [1] is listed as “having no anti-AIDS virus activities”.

For heparin, the “inhibition … of AIDS virus” value [2] is listed as “have similar physiological activities”.

In the case of interferon, the “anti-AIDS virus activities” value [1] is given as “known to exibit anti-AIDS effects”.

For k-carrageenan, the “inhibition … of AIDS virus” value [2] is listed as “have similar physiological activities”.

With lentinan sulfate the “anti-AIDS virus activities” value [6] was “have anti-AIDS virus activities”.

For λ-carrageenan, the “inhibition … of AIDS virus” value [2] is given as “have similar physiological activities”.
